We go through 11 compounds from paper PMC4648043, “Development of Small-Molecule Trypanosoma brucei N-Myristoyltransferase Inhibitors: Discovery and Optimisation of a Novel Binding Mode” (Chemmedchem, 2015).

One data set has as its target T1, hNMT (Homo sapiens, UniProt P30419).
T1 sequence (P30419 1-496): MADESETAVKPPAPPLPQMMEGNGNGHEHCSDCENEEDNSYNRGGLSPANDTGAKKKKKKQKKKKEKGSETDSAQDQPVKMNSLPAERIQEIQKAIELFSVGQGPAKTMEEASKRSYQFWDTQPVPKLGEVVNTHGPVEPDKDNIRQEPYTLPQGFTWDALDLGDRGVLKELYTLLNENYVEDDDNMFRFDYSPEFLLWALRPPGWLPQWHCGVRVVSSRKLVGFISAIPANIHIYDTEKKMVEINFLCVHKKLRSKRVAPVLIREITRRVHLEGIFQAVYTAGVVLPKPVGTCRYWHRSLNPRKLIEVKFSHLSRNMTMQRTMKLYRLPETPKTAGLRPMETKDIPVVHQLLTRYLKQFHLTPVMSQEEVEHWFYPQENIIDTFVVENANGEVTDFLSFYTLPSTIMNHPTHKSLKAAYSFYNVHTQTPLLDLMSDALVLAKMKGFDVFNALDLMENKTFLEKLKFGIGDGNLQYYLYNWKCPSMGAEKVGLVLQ
Briefly: human NMT enzyme inhibition assay. Type of data set: biochemical. Particulars: mean of two or more determinations.

The next data set has as its system T. brucei. Briefly: T. brucei parasite growth assay. Type of data set: cell-based, Trypanosoma brucei. As to conditions: for EC50: Trypanosoma brucei, mean of two or more determinations; for Selectivity ratio: hNMT IC50/T. brucei cell assay EC50.
Data set [1] concerns hMRC5. The data set can be described thus: MRC5 cell assay. As to conditions: Homo sapiens, mean of two or more determinations. Format: cell-based.
Another data set addresses T2, TbNMT (Trypanosoma brucei brucei, UniProt Q388H8).
T2 sequence (Q388H8 1-446): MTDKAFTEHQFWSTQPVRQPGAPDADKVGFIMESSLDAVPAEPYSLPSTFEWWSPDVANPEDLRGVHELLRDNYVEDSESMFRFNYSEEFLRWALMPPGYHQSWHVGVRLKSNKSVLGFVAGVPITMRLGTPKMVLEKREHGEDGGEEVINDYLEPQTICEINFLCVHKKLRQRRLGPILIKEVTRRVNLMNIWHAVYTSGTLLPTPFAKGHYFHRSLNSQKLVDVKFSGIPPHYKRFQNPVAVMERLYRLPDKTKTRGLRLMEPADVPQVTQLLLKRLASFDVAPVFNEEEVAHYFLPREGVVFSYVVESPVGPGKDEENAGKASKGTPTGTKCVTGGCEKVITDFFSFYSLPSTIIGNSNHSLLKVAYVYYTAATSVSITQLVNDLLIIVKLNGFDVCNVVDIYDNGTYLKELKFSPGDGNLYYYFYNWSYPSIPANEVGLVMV
The data set can be described thus: biochemical. Format: biochemical. Particulars: for LE TbNMT (ligand efficiency): calculated as 0.6 ln(IC50)/(heavy atom count); for IC50: mean of two or more determinations.

Data set [2] can be described thus: In vitro intrinsic clearance assay (CLint (m)). Type of data set: in vitro ADME. As to conditions: female CD1 mouse liver microsomes, 0.5 μM compound. As to the method:
[…]; 0.5 mg (mL 50 mM potassium phosphate buffer)^−1, pH 7.4), and the reaction was started by the addition of excess NADPH (8 mg (mL 50 mM potassium phosphate buffer)^−1, pH 7.4). Immediately, at time zero, then at 3, 6, 9, 15 and 30 min, an aliquot (50 μL) of the incubation mixture was removed and mixed with acetonitrile (100 μL) to stop the reaction. Internal standard was added to all samples, the samples were centrifuged (10 min, 5 °C, 3270 g) to sediment precipitated protein and the plates then sealed prior to UPLC–MS/MS analysis using a Quattro Premier XE (Waters Corp., USA).
XLfit (IDBS, UK) was used to calculate the exponential decay and consequently the rate constant (k) from the ratio of peak area of test compound to internal standard at each time point. The rate of intrinsic clearance (CLint: [mL min^−1 (g liver)^−1]) of each test compound was then calculated using Equation (1), in which V [mL (mg protein)^−1] is the incubation volume per mg protein added, and microsomal protein yield is taken as 52.5 mg protein per gram of liver. Verapamil (0.5 μM) was used as a positive control to confirm acceptable assay performance.

A short description of data set [3]: In vitro plasma protein binding, equilibrium dialysis. Type of data set: in vitro ADME. As to conditions: female CD1 mouse plasma, equilibrium dialysis 5 h; read-out: PPB (converted). How it is done: In vitro plasma protein binding experiments: In brief, a 96-well equilibrium dialysis apparatus was used to determine the free fraction in plasma for each compound (HT Dialysis LLC, Gales Ferry, CT, USA). Membranes (12-14 kDa cutoff) were conditioned in deionised water for 60 min, followed by conditioning in 80:20 deionised water/EtOH for 20 min, and then rinsed in isotonic buffer before use. Female CD1 mouse plasma was removed from the freezer and allowed to thaw on the day of experiment. Thawed plasma was then centrifuged (Allegra […], Beckman Coulter, USA, 10 min, 5 °C, 3270 g), spiked with test compound (10 μg g^-1), and 150 μL aliquots (n=6 replicate determinations) loaded into the 96-well equilibrium dialysis plate. Dialysis versus isotonic buffer (150 μL) was carried out for 5 h in a temperature-controlled incubator at ∼37 °C (Barworld Scientific Ltd., UK) using an orbital microplate shaker at 125 rpm (Barworld Scientific). At the end of the incubation period, aliquots of plasma or buffer were transferred to micronic tubes (Micronic B.V., the Netherlands), and the composition in each tube was balanced with control fluid such that the volume of buffer to plasma was the same. […] All samples were analysed by UPLC-MS/MS on a Quattro Premier XE Mass Spectrometer (Waters Corp., USA). The unbound fraction was determined as the ratio of the peak area in buffer to that in plasma.

In data set [4] the test system is hMRC5. Set-up: method as in PMID 20360736. As to conditions: previously published inhibitor; cited from earlier work.

Where two headings read alike, the source gives them in different places. Where only a bound is given, the exact number is not on record here.

Method for T. brucei: (§1) Parasite and NMT assays: These were carried out as described previously.[8–10]
Method for TbNMT: as §1
Method for hNMT: as §1

As to `COc1cc(C2SCC(=O)N2Cc2ccccc2)ccc1O` (stereo not shown) [Compound 1, 3-Benzyl-2-(4-hydroxy-3-methoxyphenyl)thiazolidin-4-one], the results for the IC50 on hNMT and at TbNMT (read-out: IC50 TbNMT) were 28 µM and 22 µM, respectively. Moreover, the EC50 in the data set on T. brucei and in the data set with hMRC5 [1] was above 50 µM in each case. Besides, the “LE TbNMT (ligand efficiency)” value on TbNMT is 0.29.

With `O=C1CSC(c2ccccc2)N1Cc1ccccn1` (stereo not shown) [Compound 12, 2-Phenyl-3-(pyridin-2-ylmethyl)thiazolidin-4-one], the IC50 against hNMT was above 100 µM; on TbNMT (read-out: IC50 TbNMT), 5.9 µM. The same compound had an EC50 in the data set on T. brucei above 50 µM. Moreover, the “LE TbNMT (ligand efficiency)” value on TbNMT is on record as 0.39.

For `COc1cc(C2SCC(=O)N2Cc2ccccn2)ccc1O` (stereo not shown) [Compound 13, 2-(4-Hydroxy-3-methoxyphenyl)-3-(pyridin-2-ylmethyl)thiazolidin-4-one], the IC50 is above 100 µM against hNMT and 0.27 µM against TbNMT (IC50 TbNMT). The compound further yielded an EC50 in the data set on T. brucei of 14 µM. Besides, the “LE TbNMT (ligand efficiency)” value on TbNMT is reported as 0.42. In addition, the “improvement in potency at TbNMT” value at TbNMT (relative to parent/starting compound) was 20 fold.

In the case of `CCOC(=O)CN1C(=O)COc2ccccc21` [Compound 14, Ethyl 2-(3-oxo-2H-benzo[b][1,4]oxazin-4(3H)-yl)acetate], the IC50 was above 100 µM at hNMT and 12 µM on TbNMT (IC50 TbNMT). The EC50 in the data set on T. brucei and in the data set with hMRC5 [1] was above 50 µM throughout. Further, the “LE TbNMT (ligand efficiency)” value on TbNMT is reported as 0.42.

Regarding `Cc1cc(CN2C(=O)COc3c(CCCCC4CCNCC4)cccc32)no1` [Compound 39, 4-((5-Methylisoxazol-3-yl)methyl)-8-(4-(piperidin-4-yl)butyl)-2H-benzo[b][1,4]oxazin-3(4H)-one], in data set [2], the “CLint (m)” value is 2.0 mL min^−1 (g liver)^−1. Moreover, the EC50 with T. brucei is 0.41 µM; in the data set with hMRC5 [1], above 50 µM.

For the compound `Cc1cc(CN2C(=O)COc3c(CCCCN4CCCN(C)CC4)cccc32)no1` [Compound 40, 4-(4-(4-((5-Methylisoxazol-3-yl)methyl)-3-oxo-3,4-dihydro-2H-benzo[b][1,4]oxazin-8-yl)butyl)homopiperazine-1-methyl], the figures for the IC50 against hNMT and on TbNMT (read-out: IC50 TbNMT) were 1 µM and below 0.002 µM, respectively. Also, the EC50 worked out at 0.08 µM with T. brucei and 24 µM with hMRC5 [1]. Also, in the data set with T. brucei, the Selectivity ratio stood at 13. The “LE TbNMT (ligand efficiency)” value at TbNMT is on record as above 0.38.

Regarding `Cc1cc(CN2C(=O)COc3c(CCCCC4CCN(C)CC4)cccc32)no1` [Compound 41, 4-((5-Methylisoxazol-3-yl)methyl)-8-(4-(1-methylpiperidin-4-yl)butyl)-2H-benzo[b][1,4]oxazin-3(4H)-one], the “CLint (m)” value in data set [2] was 10 mL min^−1 (g liver)^−1. The results for the EC50 in the data set on T. brucei and in the data set on hMRC5 [1] were 0.19 µM and 19 µM, respectively. In addition, the fraction unbound at 5 h, 10 μg g^−1 in data set [3] was 0.18.

As for `Cc1cc(CN2C(=O)COc3cc(CCCOC[C@@H]4CCN(C)C4)ccc32)no1` [Compound 42, (R)-4-((5-Methylisoxazol-3-yl)methyl)-7-(3-((1-methylpyrrolidin-3-yl)methoxy)propyl)-2H-benzo[b][1,4]oxazin-3(4H)-one], the IC50 against hNMT amounted to 24 µM; on TbNMT (read-out: IC50 TbNMT) it was 0.009 µM. Also, the “CLint (m)” value in data set [2] is listed as 7.0 mL min^−1 (g liver)^−1. Also, the EC50 was 0.35 µM in the data set with T. brucei and above 50 µM in the data set on hMRC5 [1]. Moreover, in the data set with T. brucei, the Selectivity ratio was found to be 69. Further, the “LE TbNMT (ligand efficiency)” value on TbNMT is 0.38.

For `Cc1cc(CN2C(=O)COc3cc(CCCOC4CCNCC4)ccc32)no1` [Compound 43, 4-((5-Methylisoxazol-3-yl)methyl)-7-(3-(piperidin-4-yloxy)propyl)-2H-benzo[b][1,4]oxazin-3(4H)-one], the EC50 is 0.15 µM with T. brucei and 22 µM in the data set with hMRC5 [1].

Regarding `Cc1cc(CN2C(=O)COc3cc(CCCCC4CCN(C)CC4)ccc32)no1` [Compound 44, 4-((5-Methylisoxazol-3-yl)methyl)-7-(4-(1-methylpiperidin-4-yl)butyl)-2H-benzo[b][1,4]oxazin-3(4H)-one], in data set [2], the “CLint (m)” value is given as 12 mL min^−1 (g liver)^−1. Moreover, the EC50 with T. brucei is 0.007 µM; in the data set on hMRC5 [1], 10 µM. Further, the fraction unbound at 5 h, 10 μg g^−1 in data set [3] was 0.06.

For `Cc1nn(C)c(C)c1NS(=O)(=O)c1c(Cl)cc(-c2ccnc(N3CCNCC3)c2)cc1Cl` [DDD85646], the EC50 in the data set with hMRC5 [4] was 0.4 µM.
